From ChEMBL document CHEMBL1154658, “Novel macrocyclic inhibitors of hepatitis C NS3/4A protease featuring a 2-amino-1,3-thiazole as a P4 carbamate replacement” (J Med Chem, 2009)

What was measured:
[1] = system: Hepatitis C virus; experiment: Inhibition of HCV 1b NS3/4A protease by time-resolved fluorescence assay; set-up: species or system Hepatitis C virus subtype 1b
[2] = system: Hepatitis C virus; experiment: Antiviral activity against HCV 1b infected in human Huh7 cells by bicistronic replicon RNA assay in presence of 10% fetal bovine serum; type: functional, organism-based, Hepacivirus hominis; conditions: genotype 1b, Huh-7
[3] = system: Hepatitis C virus; experiment: Antiviral activity against HCV 1b infected in human Huh7 cells by bicistronic replicon RNA assay in presence of 50% normal human serum; type: functional, organism-based, Hepacivirus hominis; conditions: genotype 1b, Huh-7
[4] = (§1) AUC (0 to 4 hrs) in Sprague-Dawley rat at 5 mg/kg, po; type: ADME, organism-based, Plasma; set-up: time < 4 hr, dose 5 mg/kg, route oral; conditions: Sprague-Dawley, plasma
[5] = Drug level in Sprague-Dawley rat liver at 5 mg/kg, po after 4 hrs; type: ADME, organism-based; set-up: dose 5 mg/kg, route oral; conditions: read-out: Drug uptake
[6] = Drug level in Sprague-Dawley rat liver at 4 mg/kg, po after 4 hrs; type: ADME, organism-based; set-up: dose 4 mg/kg, route oral; conditions: read-out: Drug uptake
[7] = Oral bioavailability in Sprague-Dawley rat at 4 mg/kg; type: ADME, organism-based; conditions: in vivo
[8] = system: Rattus norvegicus; experiment: (§2) Plasma clearance in Sprague-Dawley rat at 4 mg/kg, po; type: ADME, organism-based; set-up: dose 4 mg/kg, route oral; conditions: in vivo
[9] = system: Rattus norvegicus; experiment: (§3) AUC (0 to 4 hrs) in Sprague-Dawley rat at 4 mg/kg, po; type: ADME, organism-based, Plasma; set-up: time < 4 hr, dose 4 mg/kg, route oral; conditions: in vivo, 4 h
[10] = system: Rattus norvegicus; experiment: Plasma clearance in Sprague-Dawley rat at 5 mg/kg, po; type: ADME, organism-based; set-up: dose 5 mg/kg, route oral; conditions: in vivo
[11] = system: Rattus norvegicus; experiment: as §1; type: ADME, organism-based, Plasma; set-up: time < 4 hr, dose 5 mg/kg, route oral; conditions: in vivo, 4 h
[12] = Oral bioavailability in Sprague-Dawley rat at 5 mg/kg; type: ADME, organism-based; conditions: in vivo
[13] = Inhibition of HCV 2a NS3/4A protease; set-up: species or system Hepatitis C virus subtype 2a
[14] = Inhibition of HCV 3a NS3/4A protease; set-up: species or system Hepatitis C virus subtype 3a
[15] = Inhibition of HCV NS3/4A protease; set-up: species or system Hepacivirus hominis
[16] = as §2; type: ADME, organism-based; set-up: dose 4 mg/kg, route oral; conditions: Sprague-Dawley, plasma
[17] = Plasma clearance in Sprague-Dawley rat at 4 mg/kg, iv; type: ADME, organism-based; set-up: dose 4 mg/kg, route intravenous
[18] = AUC in Sprague-Dawley rat at 4 mg/kg, iv; type: ADME, organism-based; set-up: dose 4 mg/kg, route intravenous; conditions: plasma
[19] = Cmax in Sprague-Dawley rat at 4 mg/kg, iv; type: ADME, organism-based; set-up: dose 4 mg/kg, route intravenous; conditions: in vivo
[20] = Bioavailability in Sprague-Dawley rat at 4 mg/kg, iv; type: ADME, organism-based; conditions: in vivo
[21] = as §3; type: ADME, organism-based, Plasma; set-up: time < 4 hr, dose 4 mg/kg, route oral; conditions: Sprague-Dawley, plasma
[22] = Selectivity for HCV NS3/4A protease over trypsin
[23] = Selectivity for HCV NS3/4A protease over chymotrypsin

SMILES: C=C[C@@H]1C[C@]1(NC(=O)[C@@H]1C[C@@H]2CN1C(=O)[C@H](C(C)(C)C)Nc1nc(cs1)CCCCc1ccc3ccnc(c3c1)O2)C(=O)NS(=O)(=O)C1CC1.O=C(O)C(F)(F)F
- Ki [1]: 0.2 nM
- EC50 [2]: 20 nM
- EC50 [3]: 130 nM
- AUC(0-t) at 4 h [4]: 0.1 µM·h
- concentration at 4 h [5]: 1000 nM

SMILES: C=C[C@@H]1C[C@]1(NC(=O)[C@@H]1C[C@@H]2CN1C(=O)[C@H](C1CCCCC1)Nc1nc(cs1)CCC/C=C/c1cccc3c1CN(C3)C(=O)O2)C(=O)NS(=O)(=O)C1CC1.O=C(O)C(F)(F)F
- concentration at 4 h [6]: 350 nM
- Ki [1]: 0.04 nM
- EC50 [2]: 3 nM
- EC50 [3]: 16 nM
- bioavailability [7]: 8%
- CL [8]: 17 mL/min/kg
- AUC [9]: 0.4 µM·h

SMILES: C=C[C@@H]1C[C@]1(NC(=O)[C@@H]1C[C@@H]2CN1C(=O)[C@H](C(C)(C)C)Nc1nc(cs1)CCCCCc1cccc3c1CN(C3)C(=O)O2)C(=O)NS(=O)(=O)C1CC1.O=C(O)C(F)(F)F
- CL [10]: 95 mL/min/kg
- Ki [1]: 0.16 nM
- EC50 [2]: 4 nM
- EC50 [3]: 19 nM
- AUC [11]: 0.06 µM·h
- concentration at 4 h [5]: 60 nM
- bioavailability [12]: 5%

SMILES: C=C[C@@H]1C[C@]1(NC(=O)[C@@H]1C[C@@H]2CN1C(=O)[C@H]([C@@H](C)CC)Nc1nc(cs1)CCC/C=C/c1cccc3c1CN(C3)C(=O)O2)C(=O)NS(=O)(=O)C1CC1.O=C(O)C(F)(F)F
- concentration at 4 h [6]: 350 nM
- Ki [13]: 0.4 nM
- Ki [14]: 45 nM
- Ki [15]: 4 nM
- Ki [1]: 0.04 nM
- EC50 [2]: 2 nM
- EC90 [2]: 3 nM
- EC50 [3]: 18 nM
- EC90 [3]: 40 nM
- bioavailability [7]: 13%
- CL/F [16]: 17 mL/min/kg
- clearance [17]: 17 mL/min/kg
- AUC [18]: 0.7 µM·h
- Cmax [19]: 400 nM
- bioavailability [20]: 13%
- AUC(0-t) at 4 h [21]: 0.7 µM·h

SMILES: C=C[C@@H]1C[C@]1(NC(=O)[C@@H]1C[C@@H]2CN1C(=O)[C@H]([C@@H](C)CC)Nc1nc(cs1)CCC/C=C/c1cccc3c1CN(C3)C(=O)O2)C(=O)NS(=O)(=O)C1CC1
- fold change (FC) [22]: > 15000
- fold change (FC) [23]: > 15000

SMILES: C=C[C@@H]1C[C@]1(NC(=O)[C@@H]1C[C@@H]2CN1C(=O)[C@H](C(C)(C)C)Nc1nc(cs1)CCC/C=C/c1cccc3c1CN(C3)C(=O)O2)C(=O)NS(=O)(=O)C1CC1.O=C(O)C(F)(F)F
- concentration at 4 h [6]: 130 nM
- Ki [1]: 0.16 nM
- EC50 [2]: 3 nM
- EC50 [3]: 23 nM
- bioavailability [7]: 6%
- CL [8]: 85 mL/min/kg
- AUC [9]: 0.06 µM·h

SMILES: C=C[C@@H]1C[C@]1(NC(=O)[C@@H]1C[C@@H]2CN1C(=O)[C@H](C1CCCCC1)Nc1nc(cs1)CCCCc1ccc3ccnc(c3c1)O2)C(=O)NS(=O)(=O)C1CC1.O=C(O)C(F)(F)F
- Ki [1]: 1.3 nM
- EC50 [2]: 30 nM
- EC50 [3]: 350 nM
- AUC(0-t) at 4 h [4]: 4.7 µM·h
- concentration at 4 h [5]: 3400 nM

SMILES: C=C[C@@H]1C[C@]1(NC(=O)[C@@H]1C[C@@H]2CN1C(=O)[C@H](C(C)C)NC1=NN=C(CCCCc3ccc4ccnc(c4c3)O2)O1)C(=O)NS(=O)(=O)C1CC1
- Ki [1]: 0.9 nM
- EC50 [2]: 80 nM
- EC50 [3]: 180 nM
- AUC(0-t) at 4 h [4]: 0.1 µM·h
- concentration at 4 h [5]: 30 nM

SMILES: C=C[C@@H]1C[C@]1(NC(=O)[C@@H]1C[C@@H]2CN1C(=O)[C@H](C(C)C)Nc1nc(cs1)CCCCc1ccc3ccnc(c3c1)O2)C(=O)NS(=O)(=O)C1CC1.O=C(O)C(F)(F)F
- Ki [1]: 1.7 nM
- EC50 [2]: 60 nM
- EC50 [3]: 920 nM
- AUC(0-t) at 4 h [4]: 9.9 µM·h
- concentration at 4 h [5]: 5500 nM
- bioavailability [12]: 60%
